As a reminder, the IC50 is the concentration needed to halve the response being measured. Usually melting point stands for the temperature of the solid-liquid transition.

This note sets out measurements from patent publication US8076367B2, “Benzimidazolylidene propane-1,3-dione derivative or salt thereof” (Astellas Pharma Inc., priority 2004, dated 2011).

Data set [1] is described as follows: Measurement of blood concentration of a compound by ex vivo binding assay. The conditions noted are these: Wistar male rat, oral 10 mg/kg in 0.5% MC, serum 2 hours after administration, read-out: Blood compound concentration (B) 2 hour value. As to the method: Each compound to be tested was dissolved or suspended in 0.5% methyl cellulose (MC) solution and was orally administered to Wistar male rat of 9 weeks of age (SLC Japan) at a dose of 10 mg/kg. Blood sample was collected after 2 hours of the administration to obtain serum.
Each serum sample was mixed with the same volume of methanol to remove protein and optionally diluted with an assay buffer, and then the ^125I-D-Trp^6-LHRH binding inhibition ratio was measured in the same manner as in Test Example 1. Using a separately prepared calibration curve on the concentration-binding inhibition of compounds to be tested, blood concentration of each compound (μM) was calculated from the binding inhibition ratio.

Data set [2] deals with T1, human GnRH receptor (Homo sapiens, UniProt P30968).
T1 sequence (P30968 1-328): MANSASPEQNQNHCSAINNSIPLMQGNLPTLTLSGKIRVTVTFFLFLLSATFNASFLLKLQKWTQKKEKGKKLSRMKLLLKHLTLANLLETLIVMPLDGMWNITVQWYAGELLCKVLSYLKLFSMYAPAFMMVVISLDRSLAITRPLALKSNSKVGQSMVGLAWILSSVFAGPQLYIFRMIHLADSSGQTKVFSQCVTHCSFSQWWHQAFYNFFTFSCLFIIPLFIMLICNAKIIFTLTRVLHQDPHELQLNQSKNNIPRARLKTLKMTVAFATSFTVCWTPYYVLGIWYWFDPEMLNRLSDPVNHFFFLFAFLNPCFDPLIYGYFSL
The data set is described as follows: Test on GnRH receptor antagonism (125I-D-Trp6-LHRH binding inhibition). The conditions noted are these: inhibition of 125I-D-Trp6-LHRH binding to human GnRH receptor. An excerpt: GnRH receptor antagonism test method described on p. 56 of the Patent Reference 1.

Data set [3] is described as follows: Test on metabolic stability in human liver microsome. The format is in vitro ADME. Conditions: human liver microsome 0.2 mg protein/ml, 37° C. 15 minutes; compared with Ex 40, Ex 251, Ex 239 of Patent Reference 1.
The target of data set [4] is Cytochrome P450 (CYP3A4) (Homo sapiens, UniProt P08684). The data set is described as follows: Cytochrome P450 (CYP3A4) enzyme inhibition, Inhibition Test II (preincubation). The format is in vitro ADME. The conditions noted are these: 30 minutes preincubation with human liver microsome and NADPH, then midazolam 20 minutes; compared with Ex 40, Ex 251, Ex 239 of Patent Reference 1. The method, then:
Thereafter, midazolam as the substrate was added thereto and incubated at 37° C. for 20 minutes.
On the technique in general: Liver microsomes are vesicles of endoplasmic reticulum, rich in cytochrome P450 enzymes.

Chain of Cytochrome P450 (CYP3A4) (P08684 whole entry): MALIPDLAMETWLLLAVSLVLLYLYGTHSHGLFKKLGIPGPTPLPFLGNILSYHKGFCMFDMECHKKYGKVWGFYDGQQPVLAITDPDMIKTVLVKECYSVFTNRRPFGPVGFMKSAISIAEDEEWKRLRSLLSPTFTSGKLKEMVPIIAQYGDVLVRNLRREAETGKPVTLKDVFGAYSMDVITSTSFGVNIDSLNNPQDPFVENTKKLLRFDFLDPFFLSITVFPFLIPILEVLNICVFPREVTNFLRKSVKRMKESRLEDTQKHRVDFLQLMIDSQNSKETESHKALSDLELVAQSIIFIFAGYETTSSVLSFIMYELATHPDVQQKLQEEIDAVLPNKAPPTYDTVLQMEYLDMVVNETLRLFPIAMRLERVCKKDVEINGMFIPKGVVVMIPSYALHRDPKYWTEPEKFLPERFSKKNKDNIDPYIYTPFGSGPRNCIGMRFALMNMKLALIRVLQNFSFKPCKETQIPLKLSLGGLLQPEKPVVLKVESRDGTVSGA

With `O=C(C(C(=O)c1cccc(C(O)CO)c1)=C1Nc2ccccc2N1)c1cc(F)cc(Cl)c1` (stereo not drawn) [Ex 2-3], in data set [1], the concentration at 2 h was 710 nM. The compound also registered a half-inhibitory concentration (IC50) in data set [2] of 0.082 nM.
In turn, `O=C(C(C(=O)c1cc(F)c(F)c(F)c1)=C1Nc2ccccc2N1)c1cccc(C(O)CO)c1` (stereo not drawn) [Ex 2-4] registered a melting point of 139 to 140 °C. In data set [1], the concentration at 2 h amounted to 1310 nM. For the same compound, the “metabolic stability in human liver microsome (in vitro clearance)” value (“metabolic stability” for short) in data set [3] is “superior metabolic stability”. The compound further came in with an IC50 in data set [2] of 0.17 nM. Moreover, the “Inhibitory activity II (CYP3A4)” value in data set [4] is given as “superior actions”.
For the compound `O=C(C(C(=O)c1cccc(C(O)CO)c1)=C1Nc2ccc(F)cc2N1)c1cc(F)cc(F)c1` (stereo not drawn) [Ex 2-5], in data set [1], the concentration at 2 h amounted to 820 nM. The compound also gave an IC50 in data set [2] of 0.1 nM.
The like results for `O=C(C(C(=O)c1cccc(C(O)CO)c1)=C1Nc2ccccc2N1)c1cccc(F)c1` (stereo not drawn) [Ex 2-7] were, in that order, 1650 nM and 0.19 nM.
As to `O=C(C(C(=O)c1cccc(C(O)CO)c1)=C1Nc2cc(F)c(Cl)cc2N1)c1cc(F)cc(F)c1` (stereo not drawn) [Ex 2-12], the concentration at 2 h in data set [1] was found to be 920 nM. Moreover, in data set [2], the IC50 came to 0.15 nM.
On to `O=C(C(C(=O)c1cc(C(O)CO)ccc1F)=C1Nc2ccccc2N1)c1cc(F)cc(F)c1` (stereo not drawn) [Ex 2-20], for which, in data set [1], the concentration at 2 h amounted to 1140 nM. Further, the concentration for half-maximal inhibition (IC50) in data set [2] is 0.2 nM.
For `O=C(C(C(=O)c1cc(F)cc(F)c1F)=C1Nc2ccccc2N1)c1cccc(C(O)CO)c1` (stereo not drawn) [Ex 2-48], the melting point is 127 to 129 °C. Also, the concentration at 2 h in data set [1] was determined as 2160 nM. The half-maximal inhibitory concentration (IC50) in data set [2] turned out to be 0.22 nM.
Consider `O=C(C(C(=O)c1cccc(C(O)CO)c1)=C1Nc2ccccc2N1)c1cccc(Cl)c1` (stereo not drawn) [Ex 2-50], for which, in data set [1], the concentration at 2 h stood at 880 nM. In data set [2], this compound showed an IC50 of 0.12 nM.
`O=C(C(C(=O)c1cccc([C@@H](O)CO)c1)=C1Nc2ccccc2N1)c1cccc(F)c1` [Ex 4-1, 2-(1,3-dihydro-2H-benzimidazol-2-ylidene)-1-{3-[(1R)-1,2-dihydroxyethyl]phenyl}-3-(3-fluorophenyl)propane-1,3-dione] registered a melting point of 190 to 191 °C. Also, the concentration at 2 h in data set [1] is 1360 nM. Also, the “metabolic stability” value in data set [3] is listed as “superior metabolic stability”. Moreover, the IC50 in data set [2] was 0.093 nM. In data set [4], the “Inhibitory activity II (CYP3A4)” value was “superior actions”.
The like results for `O=C(C(C(=O)c1cccc([C@@H](O)CO)c1F)=C1Nc2ccccc2N1)c1cccc(F)c1` [Ex 4-4] were, in that order, 197 to 198 °C, 1040 nM, “superior metabolic stability”, 0.1 nM and “superior actions”.
Consider `Cc1c(C(=O)C(C(=O)c2cc(F)cc(F)c2)=C2Nc3ccccc3N2)cccc1[C@@H](O)CO` [Ex 4-5], for which the melting point fell in the range of 228 to 229 °C. In data set [1], the concentration at 2 h came out at 3740 nM. Moreover, in data set [3], the “metabolic stability” value is on record as “superior metabolic stability”. The IC50 in data set [2] was 0.12 nM. Further, the “Inhibitory activity II (CYP3A4)” value in data set [4] is on record as “superior actions”.
The compound `CCCCc1c(C(=O)C(C(=O)c2cccc(F)c2)=C2Nc3ccccc3N2)cccc1[C@@H](O)CO` [Ex 4-8] displayed a melting point of 132 to 133 °C. Moreover, the concentration at 2 h in data set [1] is 1790 nM. The same compound had an IC50 in data set [2] of 0.081 nM.
On to `O=C(C(C(=O)c1cccc([C@@H](O)CO)c1Cl)=C1Nc2ccccc2N1)c1cccc(Cl)c1` [Ex 4-15], for which the melting point lay within 134 to 136 °C. The concentration at 2 h in data set [1] was found to be 1440 nM. The IC50 in data set [2] is 0.076 nM.
With `O=C(C(C(=O)c1cccc([C@@H](O)CO)c1Cl)=C1Nc2ccccc2N1)c1cccc(F)c1` [Ex 4-21], the melting point lay within 125 to 127 °C. Further, the concentration at 2 h in data set [1] came to 2170 nM. For the same compound, the “metabolic stability” value in data set [3] is on record as “superior metabolic stability”. In data set [2], this compound had an IC50 of 0.24 nM. In data set [4], the “Inhibitory activity II (CYP3A4)” value is given as “superior actions”.
Regarding `O=C(C(C(=O)c1ccc(F)c([C@@H](O)CO)c1)=C1Nc2ccccc2N1)c1cc(F)cc(F)c1` [Ex 4-22], the melting point lay within 147 to 149 °C. The concentration at 2 h in data set [1] stood at 2170 nM. For the same compound, the “metabolic stability” value in data set [3] is listed as “superior metabolic stability”. In data set [2], this compound came in with an IC50 of 0.13 nM. The “Inhibitory activity II (CYP3A4)” value in data set [4] is on record as “superior actions”.
On to `Cc1c(C(=O)C(C(=O)c2cccc(Cl)c2)=C2Nc3ccccc3N2)cccc1[C@@H](O)CO` [Ex 4-23], for which the concentration at 2 h in data set [1] came out at 1110 nM. Moreover, the IC50 in data set [2] turned out to be 0.18 nM.
As to `Cc1cccc(C(=O)C(C(=O)c2cccc([C@@H](O)CO)c2C)=C2Nc3ccccc3N2)c1` [Ex 4-25], the concentration at 2 h in data set [1] came to 1390 nM. In addition, in data set [3], the “metabolic stability” value is on record as “superior metabolic stability”. The same compound yielded an IC50 in data set [2] of 0.14 nM. In data set [4], the “Inhibitory activity II (CYP3A4)” value is “superior actions”.
In turn, `Cc1c(C(=O)C(C(=O)c2ccccc2F)=C2Nc3ccccc3N2)cccc1[C@@H](O)CO` [Ex 4-29] displayed a melting point of 215 to 217 °C. The concentration at 2 h in data set [1] stood at 6440 nM. Moreover, the “metabolic stability” value in data set [3] was “superior metabolic stability”. For the same compound, the half-maximal inhibitory concentration (IC50) in data set [2] was 0.19 nM. Further, in data set [4], the “Inhibitory activity II (CYP3A4)” value is reported as “superior actions”.
For `O=C(C(C(=O)c1cccc([C@@H](O)CO)c1Cl)=C1Nc2ccccc2N1)c1cc(F)cc(F)c1` [Ex 4-30] the same measures were 126 to 129 °C, 1500 nM, “superior metabolic stability”, 0.1 nM and “superior actions”.
With `Cc1cccc(C(=O)C(C(=O)c2cccc([C@@H](O)CO)c2Cl)=C2Nc3ccccc3N2)c1` [Ex 4-32], the concentration at 2 h in data set [1] worked out at 670 nM. Besides, the IC50 in data set [2] came to 0.12 nM.
The like results for `O=C(C(C(=O)c1cccc([C@@H](O)CO)c1F)=C1Nc2ccccc2N1)c1cc(F)cc(F)c1` [Ex 4-33] were, in that order, 1590 nM and 0.12 nM.
The compound `O=C(C(C(=O)c1cccc([C@@H](O)CO)c1)=C1Nc2ccccc2N1)c1cc(F)cc(F)c1` [Ex 13-2, 1-(3,5-difluorophenyl)-2-(1,3-dihydro-2H-benzimidazol-2-ylidene)-3-{3-[(1R)-1,2-dihydroxyethyl]phenyl}propane-1,3-dione] came in with a melting point of 189 to 190 °C.
